Laboratory results taken from ChEMBL document CHEMBL1255267, “Reduced Susceptibility of Proteus mirabilis to triclosan” (2008).
Converted amounts (≈) assume the structure as drawn.

Key:
Format in all cases: functional
Proteus mirabilis [1] = assay: Antibacterial activity against Proteus mirabilis M 48 mutant after 18 hrs by Etest method
Proteus mirabilis [2] = assay: Antibacterial activity against Proteus mirabilis NP14 after 18 hrs by Etest method
Proteus mirabilis [3] = assay: Antibacterial activity against Proteus mirabilis NP55 after 18 hrs by Etest method
Proteus mirabilis [4] = assay: Antibacterial activity against Proteus mirabilis NP37 after 18 hrs by Etest method
Proteus mirabilis [5] = assay: Antibacterial activity against Proteus mirabilis M 29 mutant after 18 hrs by Etest method
Proteus mirabilis [6] = assay: Antibacterial activity against Proteus mirabilis M 42 mutant after 18 hrs by Etest method
Proteus mirabilis [7] = assay: Antibacterial activity against Proteus mirabilis M 21 mutant after 18 hrs by Etest method
Proteus mirabilis [8] = assay: Antibacterial activity against Proteus mirabilis M 35 mutant after 18 hrs by Etest method
Escherichia coli = assay: Antibacterial activity against Escherichia coli 10418 after 18 hrs by Etest method
Proteus mirabilis [9] = assay: Antibacterial activity against Proteus mirabilis M 55 mutant after 18 hrs by Etest method
Proteus mirabilis [10] = assay: Antibacterial activity against Proteus mirabilis NP43 after 18 hrs by Etest method
Proteus mirabilis [11] = assay: Antibacterial activity against Proteus mirabilis M 17 mutant after 18 hrs by Etest method
Proteus mirabilis [12] = assay: Antibacterial activity against Proteus mirabilis M 19 mutant after 18 hrs by Etest method
Proteus mirabilis [13] = assay: Antibacterial activity against Proteus mirabilis M 31 mutant after 18 hrs by Etest method
Proteus mirabilis [14] = assay: Antibacterial activity against Proteus mirabilis M 23 mutant after 18 hrs by Etest method
Proteus mirabilis [15] = assay: Antibacterial activity against Proteus mirabilis B2 after 18 hrs by Etest method
Proteus mirabilis [16] = assay: Antibacterial activity against Proteus mirabilis M 26 mutant after 18 hrs by Etest method
Proteus mirabilis [17] = assay: Antibacterial activity against Proteus mirabilis M 12 mutant after 18 hrs by Etest method
Proteus mirabilis [18] = assay: Antibacterial activity against Proteus mirabilis M 44 mutant after 18 hrs by Etest method
Proteus mirabilis [19] = assay: Antibacterial activity against Proteus mirabilis M 40 mutant after 18 hrs by Etest method
Proteus mirabilis [20] = assay: Effect on pH of residual urine at time of catheter blockage in Bladder model inoculated with wild-type Proteus mirabilis B2
Proteus mirabilis [21] = assay: Effect on viable cells in urine at time of catheter blockage in Bladder model inoculated with Proteus mirabilis M 55 mutant
Proteus mirabilis [22] = assay: Effect on viable cells in urine at time of catheter blockage in Bladder model inoculated with Proteus mirabilis M 48 mutant
Proteus mirabilis [23] = assay: Effect on catheter blockage in Bladder model inoculated with Proteus mirabilis M 55 mutant
Proteus mirabilis [24] = assay: Effect on catheter blockage in Bladder model inoculated with Proteus mirabilis M 48 mutant
Proteus mirabilis [25] = assay: Effect on catheter blockage in Bladder model inoculated with wild-type Proteus mirabilis B2
Proteus mirabilis [26] = assay: Effect on pH of residual urine at time of catheter blockage in Bladder model inoculated with Proteus mirabilis M 48 mutant
Proteus mirabilis [27] = assay: Effect on pH of residual urine at time of catheter blockage in Bladder model inoculated with Proteus mirabilis M 55 mutant
Proteus mirabilis [28] = assay: Effect on viable cells in urine at time of catheter blockage in Bladder model inoculated with wild-type Proteus mirabilis B2

Compound	MIC (Proteus mirabilis [1]; M 48, 18 h)	MIC (Proteus mirabilis [2]; NP14, 18 h)	MIC (Proteus mirabilis [3]; NP55, 18 h)	MIC (Proteus mirabilis [4]; NP37, 18 h)	MIC (Proteus mirabilis [5]; M 29, 18 h)	MIC (Proteus mirabilis [6]; M 42, 18 h)	MIC (Proteus mirabilis [7]; M 21, 18 h)	MIC (Proteus mirabilis [8]; M 35, 18 h)	MIC (Escherichia coli; Escherichia coli, 10418, 18 h)	MIC (Proteus mirabilis [9]; M 55, 18 h)	MIC (Proteus mirabilis [10]; NP43, 18 h)	MIC (Proteus mirabilis [11]; M 17, 18 h)	MIC (Proteus mirabilis [12]; M 19, 18 h)	MIC (Proteus mirabilis [13]; M 31, 18 h)	MIC (Proteus mirabilis [14]; M 23, 18 h)	MIC (Proteus mirabilis [15]; B2, 18 h)	MIC (Proteus mirabilis [16]; M 26, 18 h)	MIC (Proteus mirabilis [17]; M 12, 18 h)	MIC (Proteus mirabilis [18]; M 44, 18 h)	MIC (Proteus mirabilis [19]; M 40, 18 h)	further results
O=C1CN(/N=C/c2ccc([N+](=O)[O-])o2)C(=O)N1 [NITROFURANTOIN]	24 µg/mL (≈ 101 µM)	32 µg/mL (≈ 134 µM)	64 µg/mL (≈ 269 µM)	24 µg/mL (≈ 101 µM)	16 µg/mL (≈ 67.2 µM)	48 µg/mL (≈ 202 µM)	48 µg/mL (≈ 202 µM)	32 µg/mL (≈ 134 µM)	2 µg/mL (≈ 8.4 µM)	48 µg/mL (≈ 202 µM)	48 µg/mL (≈ 202 µM)	12 µg/mL (≈ 50.4 µM)	32 µg/mL (≈ 134 µM)	24 µg/mL (≈ 101 µM)	32 µg/mL (≈ 134 µM)	64 µg/mL (≈ 269 µM)	24 µg/mL (≈ 101 µM)	12 µg/mL (≈ 50.4 µM)	32 µg/mL (≈ 134 µM)	64 µg/mL (≈ 269 µM)	
CCn1cc(C(=O)O)c(=O)c2cc(F)c(N3CCNCC3)cc21 [NORFLOXACIN]	0.05 µg/mL (≈ 0.157 µM)	0.25 µg/mL (≈ 0.783 µM)	0.05 µg/mL (≈ 0.157 µM)	0.05 µg/mL (≈ 0.157 µM)	0.03 µg/mL (≈ 0.0939 µM)	0.03 µg/mL (≈ 0.0939 µM)	0.19 µg/mL (≈ 0.595 µM)	0.03 µg/mL (≈ 0.0939 µM)	0.02 µg/mL (≈ 0.0626 µM)	0.05 µg/mL (≈ 0.157 µM)	0.05 µg/mL (≈ 0.157 µM)	0.02 µg/mL (≈ 0.0626 µM)	0.19 µg/mL (≈ 0.595 µM)	0.02 µg/mL (≈ 0.0626 µM)	0.19 µg/mL (≈ 0.595 µM)	0.05 µg/mL (≈ 0.157 µM)	0.03 µg/mL (≈ 0.0939 µM)	0.02 µg/mL (≈ 0.0626 µM)	0.05 µg/mL (≈ 0.157 µM)	0.03 µg/mL (≈ 0.0939 µM)	
Oc1cc(Cl)ccc1Oc1ccc(Cl)cc1Cl [TRICLOSAN]	2 µg/mL (≈ 6.91 µM)	0.2 µg/mL (≈ 0.691 µM)	0.2 µg/mL (≈ 0.691 µM)	0.1 µg/mL (≈ 0.345 µM)	10 µg/mL (≈ 34.5 µM)	0.8 µg/mL (≈ 2.76 µM)	5 µg/mL (≈ 17.3 µM)	40 µg/mL (≈ 138 µM)	0.2 µg/mL (≈ 0.691 µM)	40 µg/mL (≈ 138 µM)	0.2 µg/mL (≈ 0.691 µM)	40 µg/mL (≈ 138 µM)	40 µg/mL (≈ 138 µM)	5 µg/mL (≈ 17.3 µM)	5 µg/mL (≈ 17.3 µM)	0.2 µg/mL (≈ 0.691 µM)	20 µg/mL (≈ 69.1 µM)	40 µg/mL (≈ 138 µM)	40 µg/mL (≈ 138 µM)	40 µg/mL (≈ 138 µM)	pH (Proteus mirabilis [20]): 6.28; CFU/ml (Proteus mirabilis [21]): 4.2 ×10⁷ /ml; CFU/ml (Proteus mirabilis [22]): 5.44 ×10⁴ /ml; Time (Proteus mirabilis [23]): 44 h; Time (Proteus mirabilis [24]): >48 h; Time (Proteus mirabilis [25]): >48 h; pH (Proteus mirabilis [26]): 6.51; pH (Proteus mirabilis [27]): 8.84; CFU/ml (Proteus mirabilis [28]): 2.07 ×10³ /ml
COc1cc(Cc2cnc(N)nc2N)cc(OC)c1OC [TRIMETHOPRIM]	> 32 µg/mL	> 32 µg/mL	> 32 µg/mL	> 32 µg/mL	> 32 µg/mL	> 32 µg/mL	> 32 µg/mL	> 32 µg/mL	0.03 µg/mL (≈ 0.103 µM)	> 32 µg/mL	0.4 µg/mL (≈ 1.38 µM)	0.25 µg/mL (≈ 0.861 µM)	> 32 µg/mL	> 32 µg/mL	> 32 µg/mL	> 32 µg/mL	> 32 µg/mL	0.19 µg/mL (≈ 0.654 µM)	> 32 µg/mL	> 32 µg/mL	
GENTAMICIN																					MIC (Proteus mirabilis [1]): 0.25 µg/mL; MIC (Proteus mirabilis [2]): 0.13 µg/mL; MIC (Proteus mirabilis [3]): 0.1 µg/mL; MIC (Proteus mirabilis [4]): 0.38 µg/mL; MIC (Proteus mirabilis [5]): 0.19 µg/mL; MIC (Proteus mirabilis [6]): 0.25 µg/mL; MIC (Proteus mirabilis [7]): 0.13 µg/mL; MIC (Proteus mirabilis [8]): 0.25 µg/mL; MIC (Escherichia coli): 0.09 µg/mL; MIC (Proteus mirabilis [9]): 0.38 µg/mL; MIC (Proteus mirabilis [10]): 0.1 µg/mL; MIC (Proteus mirabilis [11]): 0.06 µg/mL; MIC (Proteus mirabilis [12]): 0.13 µg/mL; MIC (Proteus mirabilis [13]): 0.13 µg/mL; MIC (Proteus mirabilis [14]): 0.09 µg/mL; MIC (Proteus mirabilis [15]): 0.38 µg/mL; MIC (Proteus mirabilis [16]): 0.13 µg/mL; MIC (Proteus mirabilis [17]): 0.06 µg/mL; MIC (Proteus mirabilis [18]): 0.38 µg/mL; MIC (Proteus mirabilis [19]): 0.13 µg/mL
